Data reported in patent US20250282795A1, “EGFR Inhibitors in cancer treatment” (Celyn Therapeutics, Inc., priority 2022, published 2025).

What was measured:
Type in all cases: cell-based
Ba/F3 (H773_V774insSVD) = assay: Cellular growth inhibition assay (CellTiter-Glo), Ba/F3 (H773_V774insSVD); settings: Mus musculus, BaF3, 72 h; 3 days of incubation; read-out: Ba/F3 (H773_V774 insSVD) CC50
Ba/F3 (L858R + T790M) = assay: Cellular growth inhibition assay (CellTiter-Glo), Ba/F3 (L858R+T790M); settings: Mus musculus, BaF3, 72 h; 3 days of incubation
Description: (§1) Example E. Cellular Growth Inhibition Assay
(§2) Ba/F3(Empty vector) (Signosis), Ba/F3(Wild type) (Signosis), Ba/F3(L^858R+T790M) (Signosis), Ba/F3(A767_dupASV) (Signosis), Ba/F3(D770_N771insSVD) (Signosis), Ba/F3(H773_V774insNPH) (Signosis) were seeded at a density of 4000 cells per well in a CellBIND® 384-well Flat Clear Bottom Black Polystyrene Microplates (Coming, USA, Cat #3770) in 45 μl total volume of RPMI (PanEco, Cat #C330, Russia) with […] (HyClone, Cat #SV30160.03) and with 10 ng/ml rmIL-3 (RD systems, USA, Cat #403-ML-025) (for BaBF3(Empty vector)) and with 10 ng/ml rhEGF (ThermoFisher, USA, Cat #PHG0311L) (for BaCF3(Wild type)). 500× compounds solutions in DMSO (Sigma Cat #D2650) were prepared into Cmpnds plate (DiamondWell Plate, Axigen, Cat #P-384-120SQ-C—S) and DMSO only control was included. 1.l of 500× compounds (Cmpnds plate) was added to 49 µl of culture medium into Dilution plate (Diamond Well Plate, Axigen, Cat #P-384-120SQ-C—S), mixed and then 5 μl of 10× compounds solutions were transferred to cells followed by centrifugation at 100 g for 1 min. Final DMSO concentration was 0.2% o. After 3 days of incubation 10.l of CellTiter-Glo (Promega, CAT #G7572) were added to the cells, plate was centrifuged at 100 g for 1 min and luminescence signal was measured using Microplate Reader (CLARIOStar).

Ba/F3 (A767_dupASV) = assay: Cellular growth inhibition assay (CellTiter-Glo), Ba/F3 (A767_dupASV); settings: Mus musculus, BaF3, 72 h; 3 days of incubation; read-out: Ba/F3 (A767_dup ASV) CC50
Description: as §1, §2

Ba/F3 (D770_N771insSVD) = assay: Cellular growth inhibition assay (CellTiter-Glo), Ba/F3 (D770_N771insSVD); settings: Mus musculus, BaF3, 72 h; 3 days of incubation; read-out: Ba/F3 (D770_N771 insSVD) CC50
Description: as §1, §2

[1] = Cellular growth inhibition assay (CellTiter-Glo), Ba/F3 (Empty vector); settings: mouse, Ba/F3 cells with empty vector; Ba/F3 (Empty vector) with 10 ng/ml rmIL-3, 3 days of incubation
Description: as §1, §2

Ba/F3 (EGFRwt) = assay: Cellular growth inhibition assay (CellTiter-Glo), Ba/F3 (EGFRwt); settings: Mus musculus, BaF3, 72 h; Ba/F3 (Wild type) with 10 ng/ml rhEGF, 3 days of incubation
Description: as §1, §2

Row | Compound | CC50 (Ba/F3 (H773_V774insSVD)) [nM] | CC50 (Ba/F3 (L858R + T790M)) [nM] | CC50 (Ba/F3 (A767_dupASV)) [nM] | CC50 (Ba/F3 (D770_N771insSVD)) [nM] | CC50 at 3 days [1] [nM] | CC50 (Ba/F3 (EGFRwt)) [nM]
1 | COc1c(F)cccc1Nc1c2[nH]c3c1C(=O)NCC3C/C=C/COc1cccc(c1)COc1cnccc1-2 (centres unmarked) [Compound 29, (19E)-28-[(3-Fluoro-2-methoxyphenyl)amino]-3,22-dioxa-6,11,15-triazapentacyclo[21.3.1^10,13.0^4,9.0^12,17]octacosa-1(27),4,6,8,10(28),12,19,23,25-nonaen-14-one] | 1000 to 10000 | 1000 to 10000 | 100 to 1000 | 100 to 1000 | > 10000 | 100 to 1000
2 | COc1c(F)cccc1Nc1c2[nH]c3c1C(=O)NCC3C/C=C\CCCC(=O)N1CCCC(COc3cnccc3-2)C1 (centres unmarked) [Compound 117, 25-[(3-Fluoro-2-methoxyphenyl)amino]-7,8,9,10,14,15,18,18a,19,20-decahydro-6H-7,11-methano-22,24-methenodipyrido[3,4-b:4′,3′-f][1,5,15]oxadiazacycloicosine-12,21(13H,23H)-dione] | 1000 to 10000 | 1000 to 10000 | 10 to 100 | 100 to 1000 | > 10000 | 100 to 1000
3 | COc1c(F)cccc1Nc1c2[nH]c3c1C(=O)NCC3C/C=C/CCCC(=O)N1CCCC(COc3cnccc3-2)C1 (centres unmarked) [Compound 118, 25-[(3-Fluoro-2-methoxyphenyl)amino]-7,8,9,10,14,15,18,18a,19,20-decahydro-6H-7,11-methano-22,24-methenodipyrido[3,4-b:4′,3′-f][1,5,15]oxadiazacycloicosine-12,21(13H,23H)-dione] | 1000 to 10000 | 1000 to 10000 | 100 to 1000 | 1000 to 10000 | 1000 to 10000 | 1000 to 10000
4 | COc1c(F)cccc1Nc1c2[nH]c3c1C(=O)NCC3CCCCCCC(=O)N1CCCC(COc3cnccc3-2)C1 (centres unmarked) [Compound 119, 25-[(3-Fluoro-2-methoxyphenyl)amino]-7,8,9,10,14,15,16,17,18,18a,19,20-dodecahydro-6H-7,11-methano-22,24-methenodipyrido[3,4-b:4′,3′-f][1,5,15]oxadiazacycloicosine-12,21(13H,23H)-dione] | > 10000 | > 10000 | 100 to 1000 | 1000 to 10000 | > 10000 | 1000 to 10000
5 | COc1c(F)cccc1Nc1c2[nH]c3c1C(=O)NCC3CCCCN(C)CCOc1cnccc1-2 (centres unmarked) [Compound 127, 19-[(3-Fluoro-2-methoxyphenyl)amino]-8-methyl-6,7,8,9,10,11,12,12a,13,14-decahydro-16,18-methenodipyrido[3,4-i:4′,3′-m][1,4,11]oxadiazacyclotetradecin-15(17H)-one] | > 10000 | > 10000 | 1000 to 10000 | > 10000 | > 10000 | 1000 to 10000
6 | COc1c(F)cccc1Nc1c2[nH]c3c1C(=O)NC(CC=CCOCCOc1cnccc1-2)C3 (centres unmarked) [Compound 128, 20-(3-fluoro-2-methoxyanilino)-2,3,5,8,9,10-hexahydro-9,13-methano-12,15-(metheno)pyrido[3,4-e][1,4,8,12]dioxadiazacycloheptadecin-11(14H)-one] | > 10000 | > 10000 | 1000 to 10000 | > 10000 | > 10000 | 1000 to 10000
7 | COc1c(F)cccc1Nc1c2[nH]c3c1C(=O)NCC3CCCCCCN1CCCC(COc3cnccc3-2)C1 (centres unmarked) [Compound 129, 24-(3-fluoro-2-methoxyanilino)-7,8,9,10,13,14,15,16,17,17a,18,19-dodecahydro-6H,12H-7,11-methano-21,23-(metheno)dipyrido[3,4-b: 4′,3′-f][1,5,14]oxadiazacyclononadecin-20(22H)-one] | 100 to 1000 | 1000 to 10000 | 1 to 10 | 10 to 100 | > 10000 | 100 to 1000
8 | COc1c(F)cccc1Nc1c2[nH]c3c1C(=O)NCC3CC(=O)N1CCN(CCOc3cnccc3-2)CC1 (centres unmarked) [Compound 131, 20-(3-fluoro-2-methoxyanilino)-6,7,9,10,13,13a,14,15-octahydro-12H-8,11-ethano-17,19-(metheno)dipyrido[3,4-j: 4′,3′-n][1,4,7,12]oxatriazacyclopentadecine-12,16(18H)-dione] | 100 to 1000 | 100 to 1000 | 1 to 10 | 10 to 100 | 1000 to 10000 | 10 to 100
9 | COc1c(F)cccc1Nc1c2[nH]c3c1C(=O)NCC3CC(=O)NCC(=O)NCCCOc1cnccc1-2 (centres unmarked) [Compound 132, 21-(3-fluoro-2-methoxyanilino)-6,7,8,9,11,12,14,14a,15,16-decahydro-18,20-(metheno)dipyrido[3,4-k: 4′,3′-o][1,5,8,13]oxatriazacyclohexadecine-10,13,17(19H)-trione] | > 10000 | > 10000 | 1000 to 10000 | > 10000 | > 10000 | > 10000
10 | COc1c(F)cccc1Nc1c2[nH]c3c1C(=O)NCC3CCCOCCN(C)CCCOc1cnccc1-2 (centres unmarked) [Compound 145, 22-(3-fluoro-2-methoxyanilino)-9-methyl-6,7,8,9,10,11,13,14,15,15a,16,17-dodecahydro-19,21-(metheno)dipyrido[3,4-i: 4′,3′-m][1,8,4,12]dioxadiazacycloheptadecin-18(20H)-one] | 100 to 1000 | > 10000 | 10 to 100 | 10 to 100 | > 10000 | > 10000
11 | COc1c(F)cccc1Nc1c2[nH]c3c1C(=O)NCC3CCCN1CCC(COc3cnccc3-2)C1 (centres unmarked) [Compound 161, 20-(3-fluoro-2-methoxyanilino)-6,7,8,9,11,12,13,13a,14,15-decahydro-7,10-methano-17,19-(metheno)dipyrido[3,4-b: 4′,3′-f][1,5,11]oxadiazacyclopentadecin-16(18H)-one] | 1000 to 10000 | 1000 to 10000 | 10 to 100 | 100 to 1000 | > 10000 | –
12 | COc1c(F)cccc1Nc1c2[nH]c3c1C(=O)NCC3CCCCCCNCCOc1cnccc1-2 (centres unmarked) [Compound 164, 21-(3-fluoro-2-methoxyanilino)-6,7,8,9,10,11,12,13,14,14a,15,16-dodecahydro-18,20-(metheno)dipyrido[3,4-k: 4′,3′-o][1,4,13]oxadiazacyclohexadecin-17(19H)-one] | 100 to 1000 | 1000 to 10000 | 10 to 100 | 10 to 100 | > 10000 | –
13 | COc1c(F)cccc1Nc1c2[nH]c3c1C(=O)NCC3CCCN1CCCC(C1)Oc1cnccc1-2 (centres unmarked) [Compound 166, 20-(3-fluoro-2-methoxyanilino)-6,7,8,9,11,12,13,13a,14,15-decahydro-6,10-methano-17,19-(metheno)dipyrido[3,4-b: 4′,3′-f][1,5,11]oxadiazacyclopentadecin-16(18H)-one] | 100 to 1000 | 1000 to 10000 | 1 to 10 | 10 to 100 | > 10000 | –
14 | COc1c(F)cccc1Nc1c2[nH]c3c1C(=O)NC[C@@H]3CCCN1CCC[C@@H]1COc1cnccc1-2 [Compound 167, (12aR)-20-[(3-fluoro-2-methoxyphenyl)amino]-1,2,12a,13,14,15,17,18,19,19a-decahydro-12H-4,6-methenodipyrido[3,4-h:4′,3′-l]pyrrolo[2,1-c][1,4,10]oxadiazacyclotridecin-3(5H)-one] | 100 to 1000 | 1000 to 10000 | 10 to 100 | 100 to 1000 | > 10000 | –
